Measured values as given in ChEMBL document CHEMBL1201862, “PubChem BioAssay data set” (2004).
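Tested at 5 concentrations; 48 h exposure; 96-well plates; endpoints linearly interpolated, else capped at highest concentration. Abbreviation: GI50, concentration required for 50% inhibition of growth.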 Active and inactive are the calls of the source. No stated cut-off is given here; in the data, active = GI50 up to about 1.1 µM and inactive = higher.

Columns and labels:
Test in all cases: growth of human tumour cells (NCI), 48 h
786-0 = test system: 786-0
A498 = test system: A498
A549 = test system: A549
ACHN = test system: ACHN
BT-549 = test system: BT-549
CAKI-1 = test system: CAKI-1
CCRF-CEM = test system: CCRF-CEM
COLO 205 = test system: COLO 205
DU-145 = test system: DU-145
EKVX = test system: EKVX
HCC 2998 = test system: HCC 2998
HCT-116 = test system: HCT-116
HCT-15 = test system: HCT-15
HL-60 = test system: HL-60
HOP-62 = test system: HOP-62
HT-29 = test system: HT-29
Hs-578T = test system: Hs-578T
IGROV-1 = test system: IGROV-1
K562 = test system: K562
KM12 = test system: KM12
LOX IMVI = test system: LOX IMVI
M14 = test system: M14
MCF7 = test system: MCF7
MDA-MB-231 = test system: MDA-MB-231
MDA-MB-435 = test system: MDA-MB-435
MDA-N = test system: MDA-N
MOLT-4 = test system: MOLT-4
Malme-3M = test system: Malme-3M
NCI-H226 = test system: NCI-H226
NCI-H23 = test system: NCI-H23
NCI-H460 = test system: NCI-H460
NCI-H522 = test system: NCI-H522
NCI/ADR-RES = test system: NCI/ADR-RES
OVCAR-3 = test system: OVCAR-3
OVCAR-4 = test system: OVCAR-4
OVCAR-5 = test system: OVCAR-5
OVCAR-8 = test system: OVCAR-8
PC-3 = test system: PC-3
RPMI-8226 = test system: RPMI-8226
RXF 393 = test system: RXF 393
SF-268 = test system: SF-268
SF-295 = test system: SF-295
SF-539 = test system: SF-539
SK-MEL-28 = test system: SK-MEL-28
SK-MEL-2 = test system: SK-MEL-2
SK-MEL-5 = test system: SK-MEL-5
SK-OV-3 = test system: SK-OV-3
SN12C = test system: SN12C
SNB-19 = test system: SNB-19
SNB-75 = test system: SNB-75
SW-620 = test system: SW-620
T47D = test system: T47D
TK-10 = test system: TK-10
U-251 = test system: U-251
UACC-257 = test system: UACC-257
UACC-62 = test system: UACC-62
UO-31 = test system: UO-31
HOP-92 = test system: HOP-92

SMILES: NC(=O)Nc1n[nH]c(-c2ccccc2)n1
- GI50 (786-0): > 100 µM (inactive)
- GI50 (A498): > 100 µM (inactive)
- GI50 (A549): > 100 µM (inactive)
- GI50 (ACHN): > 100 µM (inactive)
- GI50 (BT-549): > 100 µM (inactive)
- GI50 (CAKI-1): > 100 µM (inactive)
- GI50 (CCRF-CEM): > 100 µM (inactive)
- GI50 (COLO 205): > 100 µM (inactive)
- GI50 (DU-145): > 100 µM (inactive)
- GI50 (EKVX): > 100 µM (inactive)
- GI50 (HCC 2998): > 100 µM (inactive)
- GI50 (HCT-116): > 100 µM (inactive)
- GI50 (HCT-15): > 100 µM
- GI50 (HL-60): > 100 µM (inactive)
- GI50 (HOP-62): 54.1 µM (inactive)
- GI50 (HT-29): > 100 µM (inactive)
- GI50 (Hs-578T): > 100 µM (inactive)
- GI50 (IGROV-1): > 100 µM (inactive)
- GI50 (K562): > 100 µM (inactive)
- GI50 (KM12): > 100 µM (inactive)
- GI50 (LOX IMVI): > 100 µM (inactive)
- GI50 (M14): > 100 µM (inactive)
- GI50 (MCF7): > 100 µM (inactive)
- GI50 (MDA-MB-231): > 100 µM (inactive)
- GI50 (MDA-MB-435): > 100 µM (inactive)
- GI50 (MDA-N): > 100 µM (inactive)
- GI50 (MOLT-4): > 100 µM (inactive)
- GI50 (Malme-3M): > 100 µM (inactive)
- GI50 (NCI-H226): > 100 µM (inactive)
- GI50 (NCI-H23): > 100 µM (inactive)
- GI50 (NCI-H460): > 100 µM (inactive)
- GI50 (NCI-H522): > 100 µM (inactive)
- GI50 (NCI/ADR-RES): > 100 µM (inactive)
- GI50 (OVCAR-3): > 100 µM (inactive)
- GI50 (OVCAR-4): > 100 µM (inactive)
- GI50 (OVCAR-5): > 100 µM (inactive)
- GI50 (OVCAR-8): > 100 µM (inactive)
- GI50 (PC-3): > 100 µM (inactive)
- GI50 (RPMI-8226): > 100 µM (inactive)
- GI50 (RXF 393): > 100 µM (inactive)
- GI50 (SF-268): > 100 µM (inactive)
- GI50 (SF-295): 0.706 µM (active)
- GI50 (SF-539): > 100 µM (inactive)
- GI50 (SK-MEL-28): > 100 µM (inactive)
- GI50 (SK-MEL-2): > 100 µM (inactive)
- GI50 (SK-MEL-5): > 100 µM (inactive)
- GI50 (SK-OV-3): 1.79 µM (inactive)
- GI50 (SN12C): > 100 µM (inactive)
- GI50 (SNB-19): > 100 µM (inactive)
- GI50 (SNB-75): > 100 µM (inactive)
- GI50 (SW-620): > 100 µM (inactive)
- GI50 (T47D): > 100 µM (inactive)
- GI50 (TK-10): > 100 µM (inactive)
- GI50 (U-251): > 100 µM (inactive)
- GI50 (UACC-257): > 100 µM (inactive)
- GI50 (UACC-62): > 100 µM (inactive)
- GI50 (UO-31): > 100 µM (inactive)

SMILES: CNC(=O)CCCN(C)C(=O)CCCCC(=O)N(C)C
- GI50 (786-0): > 55.3 µM (inactive)
- GI50 (A498): 34.4 µM (inactive)
- GI50 (A549): > 57.1 µM (inactive)
- GI50 (ACHN): > 61.1 µM (inactive)
- GI50 (BT-549): > 62.8 µM (inactive)
- GI50 (CAKI-1): > 37.6 µM (inactive)
- GI50 (CCRF-CEM): 40.5 µM (inactive)
- GI50 (COLO 205): > 57.7 µM (inactive)
- GI50 (DU-145): > 58.5 µM (inactive)
- GI50 (EKVX): > 57.9 µM (inactive)
- GI50 (HCC 2998): > 51.1 µM (inactive)
- GI50 (HCT-116): > 57.5 µM (inactive)
- GI50 (HCT-15): > 60.4 µM
- GI50 (HL-60): 26.7 µM (inactive)
- GI50 (HOP-62): > 100 µM (inactive)
- GI50 (HOP-92): > 60.1 µM (inactive)
- GI50 (HT-29): > 57.1 µM (inactive)
- GI50 (Hs-578T): > 56.9 µM (inactive)
- GI50 (IGROV-1): > 58.7 µM (inactive)
- GI50 (K562): > 55.2 µM (inactive)
- GI50 (KM12): > 59.7 µM (inactive)
- GI50 (LOX IMVI): > 57.5 µM (inactive)
- GI50 (M14): > 100 µM (inactive)
- GI50 (MCF7): > 62.2 µM (inactive)
- GI50 (MDA-MB-231): > 37.8 µM (inactive)
- GI50 (MDA-MB-435): > 56 µM (inactive)
- GI50 (MDA-N): > 60.8 µM (inactive)
- GI50 (MOLT-4): 41.6 µM (inactive)
- GI50 (Malme-3M): 33.5 µM (inactive)
- GI50 (NCI-H226): > 67.8 µM (inactive)
- GI50 (NCI-H23): > 60.1 µM (inactive)
- GI50 (NCI-H460): > 56 µM (inactive)
- GI50 (NCI-H522): > 58.6 µM (inactive)
- GI50 (NCI/ADR-RES): > 59 µM (inactive)
- GI50 (OVCAR-3): > 92.3 µM (inactive)
- GI50 (OVCAR-4): > 100 µM (inactive)
- GI50 (OVCAR-5): > 100 µM (inactive)
- GI50 (OVCAR-8): > 60.8 µM (inactive)
- GI50 (PC-3): > 54.3 µM (inactive)
- GI50 (RPMI-8226): > 57.1 µM (inactive)
- GI50 (RXF 393): > 100 µM (inactive)
- GI50 (SF-268): > 60.8 µM (inactive)
- GI50 (SF-295): > 59.2 µM (inactive)
- GI50 (SF-539): > 59.8 µM (inactive)
- GI50 (SK-MEL-28): > 54.2 µM (inactive)
- GI50 (SK-MEL-2): > 50.9 µM (inactive)
- GI50 (SK-MEL-5): 36.6 µM (inactive)
- GI50 (SK-OV-3): > 61.5 µM (inactive)
- GI50 (SN12C): > 61.1 µM (inactive)
- GI50 (SNB-19): > 60.1 µM (inactive)
- GI50 (SNB-75): > 53.8 µM (inactive)
- GI50 (SW-620): > 59.6 µM (inactive)
- GI50 (T47D): 35 µM (inactive)
- GI50 (TK-10): > 56.8 µM (inactive)
- GI50 (U-251): > 58.2 µM (inactive)
- GI50 (UACC-257): > 59.3 µM (inactive)
- GI50 (UACC-62): > 57.4 µM (inactive)
- GI50 (UO-31): > 61 µM (inactive)
